{
  "source": "paper PMC2951136",
  "about": "(Journal of neurochemistry, 2009)",
  "biological_target": "human dopamine transporter (hDAT) (Homo sapiens, UniProt Q01959)",
  "sequence (Q01959 whole entry)": "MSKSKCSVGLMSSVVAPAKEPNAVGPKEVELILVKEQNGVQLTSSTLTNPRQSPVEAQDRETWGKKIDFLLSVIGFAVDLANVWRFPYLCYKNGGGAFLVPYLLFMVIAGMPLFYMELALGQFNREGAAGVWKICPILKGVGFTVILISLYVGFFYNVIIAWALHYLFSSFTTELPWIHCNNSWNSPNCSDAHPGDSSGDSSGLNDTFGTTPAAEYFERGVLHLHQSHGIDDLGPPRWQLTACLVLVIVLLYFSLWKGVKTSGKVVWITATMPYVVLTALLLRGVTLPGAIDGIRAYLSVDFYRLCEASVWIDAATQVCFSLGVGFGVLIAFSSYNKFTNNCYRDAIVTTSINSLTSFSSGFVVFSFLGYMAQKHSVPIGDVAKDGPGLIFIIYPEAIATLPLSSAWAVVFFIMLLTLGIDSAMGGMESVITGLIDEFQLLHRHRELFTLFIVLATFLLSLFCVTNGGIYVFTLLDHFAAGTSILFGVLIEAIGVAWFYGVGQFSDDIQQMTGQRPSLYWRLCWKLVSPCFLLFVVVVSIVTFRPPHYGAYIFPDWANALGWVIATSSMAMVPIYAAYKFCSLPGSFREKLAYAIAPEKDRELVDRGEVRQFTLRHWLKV",
  "test": "live-cell confocal imaging of ASP+ accumulation in hDAT-transfected EM4 cells",
  "format": "cell-based",
  "data": [
    {"smiles": "CCCCC/C=C\\C/C=C\\C/C=C\\C/C=C\\CCCC(=O)NCCO", "note": "[AEA, anandamide]", "values": [
      {"measurement": "IC50", "result": "3.2 ± 0.8", "unit": "µM"}
    ]}
  ]
}
